Assays:
platelet factor-4 (PF-4) [1] = assay: Thrombus formation by PF-4, FeCl3 induced VT model, combination with PLAVIX (Example 26); type: in vivo, BALB/c mice; conditions: for PF-4 mRNA, percent as compared to the PBS + FeCl3 control (thrombus formation): ISIS 404071 0 mg/kg
Description: The combination of ISIS 404071 and PLAVIX was evaluated in the FeCl3 induced VT mouse model. Four groups of eight BALB/c mice, weighing approximately 25 g each, were treated with 6.25 mg/kg, 12.50 mg/kg, 25.00 mg/kg, or 50.00 mg/kg of PLAVIX. Mice were given two doses of PLAVIX on day one and one dose of PLAVIX on day two, two hours before surgery.
(§1) After the last dose of ISIS 404071, mice were treated with 6.25 mg/kg, 12.50 mg/kg, 25.00 mg/kg, or 50.00 mg/kg of PLAVIX. Two doses of PLAVIX were administered to the mice on day one and one dose of PLAVIX was administered on day two, two hours before surgery.
Two control groups of eight BALB/c mice, weighing approximately 25 g each, were not treated with ISIS 404071 or PLAVIX. […] Thrombus formation was induced with FeCl3 in all of the mice except the first […] control groups. All mice were anesthetized with 150 mg/kg of ketamine mixed with 10 mg/kg of xylazine administered by intraperitoneal injection.
After 3 minutes of exposure, the filter paper was removed. Thirty minutes after the filter paper application, a fixed length of the vein containing the thrombus was dissected out for platelet analysis.
Real-time PCR quantification of PF-4 was used to quantify platelets in the vena cava as a measure of thrombus formation. […] Therefore, the combination of anti-platelet therapy with Factor 11 ASO increases antithrombotic activity. Data is presented as percent of PF-4 mRNA as compared to the PBS+ FeCl3 control.

[2] = Tail bleeding assay, combination with PLAVIX (Example 27); type: in vivo, BALB/c mice; conditions: ISIS 404071 0
Description: as §1, with “ISIS 404071 was administered subcutaneously at a dosage of 20 mg/kg twice a week for 3 weeks to 5 groups of eight BALB/c mice. After” for “After”, “with 0 mg/kg,” for “with”, “bleeding.” for “surgery.”
Two hours after receiving their final treatment, mice were placed in a tail bleeding chamber. […] The blood was collected for the course of 40 minutes.

Factor 11 mRNA = Factor 11 mRNA in liver, FeCl3 induced venous thrombosis model vs Apixaban (Example 14); type: in vivo, BALB/c mice; conditions: for % inhibition of Factor 11 mRNA in liver relative to PBS control: FeCl3 VT model
Description: (§2) ISIS 404071 and Apixaban were evaluated in the FeCl3 induced VT mouse model. […] Two days after receiving the last dose of ISIS 404071, mice were anesthetized with 150 mg/kg ketamine mixed with 10 mg/kg xylazine administered by intraperitoneal injection. […] Twenty minutes after receiving Apixaban, mice were anesthetized with 150 mg/kg ketamine mixed with 10 mg/kg xylazine administered by intraperitoneal injection. […] Two days after the last dose of PBS, mice in both groups were anesthetized with 150 mg/kg ketamine mixed with 10 mg/kg xylazine administered by intraperitoneal injection. Thrombus formation was induced with FeCl3 in all of the mice except the first control group.
(§3) In mice undergoing FeCl3 treatment, thrombus formation was induced by applying a piece of filter paper (2×4 mm) pre-saturated with 10% FeCl3 solution directly on the vena cava. After 3 minutes of exposure, the filter paper was removed. Thirty minutes after the filter paper application, a fixed length of the vein containing the thrombus was dissected out for platelet analysis. Liver was collected for RNA analysis.
RNA was extracted from liver tissue for real-time PCR analysis of Factor 11. Results are presented as percent inhibition of Factor 11, relative to PBS control.

platelet factor-4 (PF-4) [3] = assay: Thrombus formation by PF-4 real-time PCR, FeCl3 induced venous thrombosis model vs Apixaban (Example 14); type: in vivo, BALB/c mice; conditions: for PF-4 in vena cava, percentage as compared to PBS controls (thrombus formation): + FeCl3
Description: as §2, §3
Real-time PCR quantification of platelet factor-4 (PF-4) was used to quantify platelets in the vena cava as a measure of thrombus formation. […] Results are presented as a percentage of PF-4 in ISIS 404071 or Apixaban treated mice, as compared to the two PBS-treated control groups.

[4] = parameters: species or system BALB/c mice; conditions: mouse, in vivo
Description: ISIS 404071 and Apixaban were evaluated in the tail bleeding model.
The saline filled tubes were weighed before and after bleeding.

blood coagulation = assay: PT and aPTT, combination with Apixaban (Example 20); type: in vivo, BALB/c mice
Description: PT and aPTT were measured using PPP from mice treated with ISIS 404071 in combination with Apixaban. In the first cohort, ISIS 404071 was administered subcutaneously to BALB/c mice at a dosage of 25 mg/kg twice a week for 3 weeks. Plasma was collected from these mice 5 days after receiving the last dose of ISIS 404071. In the second cohort, Apixaban was administered subcutaneously to BALB/c mice at a dosage of 6 mg/kg twice daily for three days. Plasma was collected from these mice 20 minutes after receiving the last dose of Apixaban. In the third cohort, ISIS 404071 was administered subcutaneously to BALB/c mice at a dosage of 20 mg/kg twice a week for 3 weeks, and Apixaban was administered subcutaneously at a dosage of 6 mg/kg twice daily on the last three days of ISIS 404071 treatment. Plasma was collected from these mice 20 minutes after receiving the last dose of Apixaban. In a fourth cohort, PBS was administered subcutaneously twice a week for three weeks, as a control. Plasma was collected 5 days after the last dose of PBS.
PT and aPTT values provided in Table 32 are reported as International Normalized Ratio (INR) values. […] However, Apixaban and Apixaban combined with ISIS 404071 increased PT. Also shown in Table 32, Apixaban, ISIS 404071, and ISIS 404071 combined with Apixaban increase aPTT.

[5] = Tail bleeding assay, Apixaban in combination with PLAVIX (Example 28); type: in vivo, BALB/c mice
Description: Five groups of eight BALB/c mice were treated with 0 mg/kg, 6.25 mg/kg, 12.50 mg/kg, 25.00 mg/kg, or 50.00 mg/kg of PLAVIX. Mice were given two doses of PLAVIX on day one and one dose of PLAVIX on day two, two hours before bleeding. An additional five groups of eight BALB/c mice were treated with 0 mg/kg, 6.25 mg/kg, 12.50 mg/kg, 25.00 mg/kg, or 50.00 mg/kg of PLAVIX. Mice were given two doses of PLAVIX on day one and one dose of PLAVIX on day two, two hours before bleeding. […] Two hours after receiving their final treatment, mice were placed in a tail bleeding chamber.

[6] = apixaban added to aspirin and to aspirin plus clopidogrel, compared with aspirin alone and aspirin plus clopidogrel (Wong); cited from earlier work
[7] = Apixaban 0.5 mg/kg subcutaneously one time
[8] = Apixaban 2 mg/kg subcutaneously one time
[9] = Apixaban 5 mg/kg subcutaneously one time
[10] = Apixaban 10 mg/kg subcutaneously one time
[11] = Apixaban 20 mg/kg subcutaneously one time
[12] = BALB/c mice, ISIS 404071 25 or 20 mg/kg, Apixaban 6 mg/kg twice daily
[13] = ISIS 404071 alone 25 mg/kg s.c. twice a week for 3 weeks, Apixaban alone 6 mg/kg s.c. twice daily for three days, combination 20 mg/kg + 6 mg/kg

Compound: COC(=O)[C@H](c1ccccc1Cl)N1CCc2sccc2C1 [PLAVIX, clopidogrel]
- PF-4 in vena cava as measure of thrombus formation (platelet factor-4 (PF-4) [1]; FeCl3 induced VT model, PLAVIX 6.25-50 mg/kg, ISIS 404071 20 mg/kg): resulted in a reduction of PF-4
- PF-4 mRNA, percent as compared to the PBS + FeCl3 control (thrombus formation) (platelet factor-4 (PF-4) [1]; PLAVIX 6.25 mg/kg): 59%
- PF-4 mRNA, percent as compared to the PBS + FeCl3 control (thrombus formation) (platelet factor-4 (PF-4) [1]; PLAVIX 12.50 mg/kg): 37%
- PF-4 mRNA, percent as compared to the PBS + FeCl3 control (thrombus formation) (platelet factor-4 (PF-4) [1]; PLAVIX 50.00 mg/kg): 30%
- PF-4 mRNA, percent as compared to the PBS + FeCl3 control (thrombus formation) (platelet factor-4 (PF-4) [1]; PLAVIX […]): 30%
- Blood (tail bleeding, collected for 40 minutes) ([2]; PLAVIX 6.25 mg/kg): 0.075 g
- Blood (tail bleeding, collected for 40 minutes) ([2]; PLAVIX 12.50 mg/kg): 0.205 g
- Blood (tail bleeding, collected for 40 minutes) ([2]; PLAVIX 50.00 mg/kg): 0.628 g

Compound: COc1ccc(-n2nc(C(N)=O)c3c2C(=O)N(c2ccc(N4CCCCC4=O)cc2)CC3)cc1 [Apixaban, reference compound]
- % inhibition of Factor 11 mRNA in liver relative to PBS control (Factor 11 mRNA; [7]): 5%
- % inhibition of Factor 11 mRNA in liver relative to PBS control (Factor 11 mRNA; [8]): 8%
- % inhibition of Factor 11 mRNA in liver relative to PBS control (Factor 11 mRNA; [9]): 12%
- % inhibition of Factor 11 mRNA in liver relative to PBS control (Factor 11 mRNA; [10]): 2%
- % inhibition of Factor 11 mRNA in liver relative to PBS control (Factor 11 mRNA; [11]): 0%
- Factor 11 mRNA in liver vs PBS control (Factor 11 mRNA; FeCl3 induced VT model, ISIS 404071 1.25-40 mg/kg, Apixaban 0.5-5 mg/kg s.c. once): did not result in significant reduction of Factor 11
- PF-4 in vena cava, percentage as compared to PBS controls (thrombus formation) (platelet factor-4 (PF-4) [3]; [7]): 67%
- PF-4 in vena cava, percentage as compared to PBS controls (thrombus formation) (platelet factor-4 (PF-4) [3]; [8]): 46%
- PF-4 in vena cava, percentage as compared to PBS controls (thrombus formation) (platelet factor-4 (PF-4) [3]; [9]): 15%
- PF-4 in vena cava, percentage as compared to PBS controls (thrombus formation) (platelet factor-4 (PF-4) [3]; [10]): 5%
- PF-4 in vena cava, percentage as compared to PBS controls (thrombus formation) (platelet factor-4 (PF-4) [3]; [11]): 26%
- PF-4 in vena cava as measure of thrombus formation (platelet factor-4 (PF-4) [3]; FeCl3 induced VT model, vs PBS control): also resulted in reduction of PF-4
- bleeding in tail bleeding assay [4]: did increase bleeding
- PT (blood coagulation; [12]): increased PT
- aPTT (blood coagulation; [12]): increase aPTT
- PT INR (blood coagulation; [13]): 3.25 INR
- aPTT INR (blood coagulation; [13]): 1.44 INR
- bleeding risk in tail bleeding assay ([5]; Apixaban 0.5 mg/kg i.p. in combination with anti-platelet therapy (PLAVIX 0-50 mg/kg)): increases bleeding risk
- Blood (tail bleeding, collected for 40 minutes) ([5]; Apixaban 0.5 mg/kg intraperitoneally 20 minutes before bleeding, PLAVIX 0): 0.004 g
- bleeding time [6]: significant increase in bleeding time

Source: patent US20230263822A1, “MODULATION OF FACTOR 11 EXPRESSION” (Ionis Pharmaceuticals, Inc., priority 2008, published 2023)
